The target of this test is T1, recombinant Schistosoma japonicum aldose reductase (rSjAR; SjAR) (Schistosoma japonicum, UniProt Q5DD64).
T1 construct: gene Akr1b4; SjAR-pET28a plasmid, expressed in E. coli BL21(DE3)
T1 sequence (Q5DD64 1-310): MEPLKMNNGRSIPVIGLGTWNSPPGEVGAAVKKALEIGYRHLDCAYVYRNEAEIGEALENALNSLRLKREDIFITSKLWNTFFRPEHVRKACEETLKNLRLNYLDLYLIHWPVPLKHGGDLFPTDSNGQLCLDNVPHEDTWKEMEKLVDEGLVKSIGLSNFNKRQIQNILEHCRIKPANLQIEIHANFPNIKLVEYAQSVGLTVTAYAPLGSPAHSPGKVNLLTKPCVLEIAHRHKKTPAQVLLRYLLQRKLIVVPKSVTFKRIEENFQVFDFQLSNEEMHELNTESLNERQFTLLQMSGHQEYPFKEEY
As to the kind of experiment: NADPH depletion at […] nm, microplate. In kind it is biochemical.

Results on one compound are retold here after publication PMC3691639, “Aldose reductase from Schistosoma japonicum: crystallization and structure-based inhibitor screening for discovering antischistosomal lead compounds” (Parasites & Vectors, 2013).

As a reminder, the IC50 is the point on the concentration scale where inhibition reaches its midpoint.

With `O=C1c2ccccc2C(=C2c3ccccc3C(=O)c3ccccc32)c2ccccc21` [AR9], the IC50 was 30.6 µM.
